Experimental data from patent US20260240202A1, “MINERAL PROTEINATES FOR USE IN ANIMAL FEEDS, AND METHODS OF MAKING THEREOF” (Cargill, Incorporated, priority 2023, published 2026).
Marks after values point to notes of the source that are not given here.

Experiment: Chick Zn bioavailability trial: performance and tibia bone measures
Type: in vivo, New Hampshire×Columbian male and female chicks
Details: for Dry Bone Wt (mg/tibia) / Bone Ash (%) / Bone Ash Wt (mg/tibia) / Tibia Ash Zn Conc. (μg/g of ash): 14 d; for Dry Bone Wt (mg/tibia): right tibia
Experimental: New Hampshire×Columbian male and female chicks from the University of Illinois Poultry Field Laboratory were fed a nutritionally complete corn-soybean meal diet for the first 3 days post-hatching. The chicks were then switched to a Zn-deficient soy concentrate basal diet and fed this diet until 1600 h on D 7 post-hatching. After being subjected to overnight feed withdrawal, chicks were weighed, wing banded and allotted to pens so that each pen has a similar initial weight. Treatment additions were made at the expense of cornstarch. The trial diet can be seen in Table 6.
Five replicate groups of four chicks were fed one of 10 diets for 14 d (Day 8-22 post-hatch). Chicks were maintained in heated stainless-steel batteries and exposed to constant fluorescent light. The dietary treatments are listed below: • 1. Basal soy concentrate diet-Zn deficient (13-14 mg/kg Zn) • 2. As 1+3 mg/kg Zn from feed grade ZnSO4·7H2O • 3. As 1+6 mg/kg Zn from feed grade ZnSO4·7H2O • 4. As 1+9 mg/kg Zn from feed grade ZnSO4·7H2O • 5. As 1+3 mg/kg Zn from Organic Zn prototype MinPro-E75 • 6. As 1+6 mg/kg Zn from Organic Zn prototype MinPro-E75 • 7. As 1+9 mg/kg Zn from Organic Zn prototype MinPro-E75 • 8. As 1+3 mg/kg Zn from Organic Zn prototype MinPro-HSW • 9. As 1+6 mg/kg Zn from Organic Zn prototype MinPro-HSW • 10. As 1+9 mg/kg Zn from Organic Zn prototype MinPro-HSW
Chicks were weighed at the beginning and the end of the trial and weight gain calculated by subtracting the starting weight from the ending weight. Feed intakes were calculated via subtracting the feed refusals from the feed provided, with Zn intakes calculated based on Zn concentration in the diet and total feed consumed. Feed conversions were determined by using the feed consumed divided by weight gained.
Upon termination of the experiment, chicks and feeders were weighed and chicks were euthanized with CO2 gas. The right tibia from each chick was removed and pooled by replicate pen. The tibia was then autoclaved and cleaned to remove all adhering tissue, dried at 110° C. for 24 h, and then dry ashed in a muffle furnace. The ash was analyzed for Zn at the University of Missouri. Bioavailability of Zn was then determined by the slope-ratio method using multiple regression analysis. Weight gain, tibia Zn concentration and total tibia Zn were regressed on supplemental Zn intake from the Zn sources and the bioavailability of the Zn in the Zn-protein sources was calculated relative to the Zn in ZnSO4·7H2O.

Tibia Ash Zn Conc. (μg/g of ash) (3 mg/kg supplemental Zn): 79.16^ef μg/g of ash | Tibia Ash Zn Conc. (μg/g of ash) (6 mg/kg supplemental Zn): 88.98^cd μg/g of ash | Tibia Ash Zn Conc. (μg/g of ash) (9 mg/kg supplemental Zn): 101.2^ab μg/g of ash
SMILES: O.O.O.O.O.O.O.O=S(=O)([O-])[O-].[Zn+2] [ZnSO4, ZnSO4·7H2O]
Dry Bone Wt (mg/tibia) (3 mg/kg supplemental Zn in Zn-deficient basal diet): 1012^e mg/tibia | Bone Ash (%) (3 mg/kg supplemental Zn): 42.8^bcd % | Bone Ash Wt (mg/tibia) (3 mg/kg supplemental Zn): 433^de mg/tibia | Dry Bone Wt (mg/tibia) (6 mg/kg supplemental Zn in Zn-deficient basal diet): 1104^bdc mg/tibia | Bone Ash (%) (6 mg/kg supplemental Zn): 43.4^abcd % | Bone Ash Wt (mg/tibia) (6 mg/kg supplemental Zn): 478^bc mg/tibia | Dry Bone Wt (mg/tibia) (9 mg/kg supplemental Zn in Zn-deficient basal diet): 1176^ab mg/tibia | Bone Ash (%) (9 mg/kg supplemental Zn): 43.8^ab % | Bone Ash Wt (mg/tibia) (9 mg/kg supplemental Zn): 515^ab mg/tibia | Feed efficiency (Zinc inclusion at 3 mg/kg and 6 mg/kg): approximately 560 g/kg of feed consumed
